The values that follow come from publication PMC9654711, “Neuroprotective Action of Coumarin Derivatives through Activation of TRKB-CREB-BDNF Pathway and Reduction of Caspase Activity in Neuronal Cells Expressing Pro-Aggregated Tau Protein” (International Journal of Molecular Sciences, 2022).

For data set [1], the target named is T1, TRKB-ECD-His (extracellular domain of TRKB) (Homo sapiens, UniProt Q16620).
T1 construct: extracellular domain of TRKB (TRKB-ECD) (residues 32–429, XP_016870240); Saccharomyces cerevisiae α-factor secretion signal (N, cleaved yes); made in house; host or cells: Pichia pastoris
Briefly: Tryptophan fluorescence quenching assay. To be noted: TRKB-ECD-His 50 nM in PBS; excitation 295 nm, emission 330 nm; compounds 0–1000 nM; read-out: TRKB-ECD binding affinity (KD). The text has this: The cDNA fragment containing the full-length extracellular domain of TRKB (TRKB-ECD) (residues 32–429, XP_016870240) was amplified from pDONR223-NTRK2 plasmid (Addgene, Watertown, MA, USA) using forward primer 5′-ctcgagaaaagagaggctgaagctTGTCCCACGTCCTGAAATG (XhoI site and Kex2 cleavage of the signal sequence in lowercase letters) and reverse primer 5′-gtcgac[…] (SalI site in lowercase letters). After cloning and sequencing, the TRKB-ECD fragment was excised with XhoI and SalI and subcloned into Pichia expression vector pGAPZα A (Invitrogen). The AvrII-linearized plasmid was then transformed into Pichia pastoris, and stable transformants selected and cultured at 30 °C for 4 days for constitutive expression of recombinant His-tagged TRKB-ECD. The secreted TRKB-ECD-His in cultured medium was purified using Ni-NTA His•Bind resins (Novagen, Madison, WI 53719, USA) according to the supplier’s instructions. Protein purity was examined by Coomassie blue staining of SDS-polyacrylamide gel as well as immunoblotting using anti-His (1:2000; Acris, Herford, Germany) and anti-TRKB (1:1000; Cell Signaling) antibodies.
The interaction between TRKB-ECD-His and LM-031, LMDS-1 or LMDS-2 was determined by tryptophan fluorescence titration. 7,8-DHF (Sigma-Aldrich) was included as a positive control. Tryptophan fluorescence spectra of TRKB-ECD-His (50 nM in PBS) were obtained before and after titration with different concentrations of test compounds (0–1000 nM). The fluorescent quenching was conducted in a cuvette with a 1 cm path length cell by an F-7000 fluorescence spectrophotometer (Hitachi, Tokyo, Japan) at room temperature. The intrinsic fluorescence spectra of TRKB were recorded with excitation wavelength set at 295 nm and emission wavelength in the range 300–400 nm. The dissociation constant (KD) of 7,8-DHF, LM-031, LMDS-1 and LMDS-2 to TRKB was determined by fitting the normalized fluorescence intensity at 330 nm under different concentrations of test compounds using the equation derived from Liu et al.:KD = [P]T (f − 1) + [D]T (1/f − 1), where f is the fractional change, and [P]Tand [D]Tare the total concentration of TRKB-ECD-His protein and test compound, respectively.

Data set [2] in a line: High-content analysis of ΔK280 tauRD-DsRed fluorescence and cell number (folding reporter). Conditions: human; induced ΔK280 tauRD-DsRed SH-SY5Y; compounds 2.5–10 µM; read-out: IC50 cytotoxicity based on the cell number analyzed. Format: cell-based, human. The method, then:
(§1) On day 1, ∆K280 tauRD-DsRed SH-SY5Y cells were seeded in a 96-well plate (3 × 10^4/well), with retinoic acid (10 µM; Sigma-Aldrich) added to induce neuronal differentiation. […] […] For ROS measurement, dichloro-dihydro-fluorescein diacetate (DCFH-DA, 10 µM; Invitrogen, Carlsbad, CA, USA) was added to the cells on day 8 and incubated at 37 °C for 30 min.

Data set [3] has as its system ΔK280 tauRD-DsRed SH-SY5Y cells. The experiment in a line: High-content analysis of neurite outgrowth. The format is cell-based, human. To be noted: 10 µM. As for the experimental part: As described, ∆K280 tauRD-DsRed SH-SY5Y cells were seeded in a 24-well plate (5 × 10^4/well) with retinoic acid addition on day 1, treated with tested compounds (10 µM) and ∆K280 tauRD-DsRed expression was induced with doxycycline (2 μg/mL) on day 2. On day 8, after being fixed in 4% paraformaldehyde for 15 min, permeabilized in 0.1% Triton X-100 for 10 min and blocked in 3% bovine serum albumin (BSA) for 20 min, the cells were stained with TUBB3 (neuronal class III β-tubulin) primary antibody (1:1000; BioLegend, San Diego, CA, USA) at 4 °C overnight, followed by goat anti-rabbit Alexa Fluor® 555 secondary antibody (1:1000; Molecular probes) at room temperature for 2 h, with 4′-6-diamidino-2-phenylindole (DAPI, 0.1 µg/mL; Sigma-Aldrich) included for nuclei staining. Neuronal images were captured using the high-content analysis system as described. Neurite total length (μm), processes (primary neurite extensions projecting directly from the cell body) and branching (points at which primary neurites bifurcated) were analyzed using Neurite Outgrowth Application Module (MetaXpress; Molecular Devices). Around 5000 cells were analyzed in each of three independent experiments for each sample.

A short description of data set [4]: DPPH free radical-scavenging assay. To be noted: compounds tested 10–80 μM; DPPH 100 µM; linear interpolation. The method, then: The potential free radical-scavenging activity of test compounds was assayed using stable free radical 1,1-diphenyl-2-picrylhydrazyl (DPPH) (Sigma-Aldrich). Briefly, kaempferol, LM-031 or LMDS-1 to -4 (10–80 µM) was added to DPPH (100 µM in 99% ethanol). The solution was vortexed for 15 s, left for 30 min at room temperature, the mixture was transferred to a 96-well UV-transparent microplate and the absorbance at 517 nm was measured using a Multiskan^TM GO microplate spectrophotometer (Thermo Fisher Scientific, Waltham, MA, USA). Radical-scavenging activity was calculated using the equation: 1 − (absorbance of sample/absorbance of control) × 100%, and EC50 estimated using the linear interpolation method.

The target of data set [5] is T2, E. coli-expressed ΔK280 tauRD protein (Homo sapiens, UniProt P10636, DEL597-597).
T2 construct: assessed by using E. coli-expressed ΔK280 tauRD protein; made in house; host or cells: E. coli
Briefly: Anti-ΔK280 tauRD aggregation assay (thioflavin T). Format: biochemical. To be noted: compounds tested 1–10 μM, 20 μM protein, 48 h, linear interpolation, read-out: EC50 for ΔK280 tauRD aggregation inhibition. The method, then:
Thioflavin T is widely used to visualize and quantify the presence of misfolded amyloid protein aggregates in vitro [74]. The tau aggregation inhibiting potential of Congo red, LM-031 and LMDS-1 to -4 was assessed by using E. coli-expressed ΔK280 tauRD protein [28]. Briefly, purified ΔK280 tauRD protein (20 μM) was incubated with Congo red or coumarin compounds (1–10 μM) in 150 mM NaCl and 20 mM Tris-HCl pH8.0, at 37 °C with shaking for 48 h to form aggregates. Then, thioflavin T (final 5 μM; Acros Organics, Geel, Belgium) was added and incubated for 25 min at room temperature. Fluorescence intensity of samples was recorded at excitation/emission wavelengths of 420/485 nm using an FLx800 microplate reader (BioTek, Winooski, VT, USA). The half maximal effective concentration (EC50) values were calculated by using a linear interpolation method.

A short description of data set [6]: Oxygen radical antioxidant capacity (ORAC) assay. Conditions: compound at 100 μM. The method, then:
In addition, an oxygen radical antioxidant capacity (ORAC) assay was performed using an OxiSelect™ kit according to the manufacturer’s instruction (Cell Biolabs, San Diego, CA, USA). Briefly, Trolox standards (2.5–50 μM) and samples (4–100 μM) were diluted with 50% acetone. Blank (50% acetone), standards and samples were mixed with fluorescein and incubated at 37 °C for 30 min. Following the free radical initiator 2,2′-azobis(2-methylpropionamidine) dihydrochloride (AAPH), the produced peroxyl radicals (ROO•) quench the fluorescent probe over time. Antioxidants present in the assay block the peroxyl radical oxidation of the fluorescent probe. The course of the reaction was recorded for 60 min, with one measurement every five minutes using a BioTek FLx800 microplate reader. The excitation and emission wavelengths were set at 480 nm and 520 nm, respectively. To quantify the oxygen radical antioxidant activity in a sample, the area under the curve (AUC) for blank, standard and samples was calculated. After subtraction of the blank, the equivalent Trolox concentrations of samples were expressed based on the Trolox standard curve.

In data set [7] the test system is ΔK280 tauRD-DsRed SH-SY5Y folding reporter cells. The experiment in a line: High-content analysis of ΔK280 tauRD-DsRed fluorescence and cell number (folding reporter). The format is cell-based, human. Conditions: BDNF at 100 ng/mL, LMDS-1/2 at 10 μM; untreated = 100%; Figure 6A. The method, then: as §1
The subject of data set [8] is p-TRKB (Y516 and Y817). Briefly: Immunoblot of p-TRKB (Y516 and Y817). Format: cell-based, human. To be noted: BDNF 100 ng/mL, LMDS-1/2 10 μM; induced untreated 77–83%; Figure 6B. The method, then: (§2) ∆K280 tauRD-DsRed SH-SY5Y cells in 6-well plates (5 × 10^5/well) were treated with retinoic acid (10 µM) on day 1, followed by LMDS-1 or -2 (10 µM) and doxycycline (2 µg/mL) addition on day 2 as described. ERK inhibitor U0126 or PI3K inhibitor wortmannin (10 μM) (LC Laboratories, Woburn, MA, USA) was added on day 6. On day 8, the cells were collected for BDNF, BCL2, BAX and total/phosphorylated TRKB, ERK, AKT, CREB protein analyses as described.
(§3) ∆K280 tauRD-DsRed SH-SY5Y cells were lysed in buffer containing 50 mM Tris-HCl (pH 8.0), 150 mM NaCl, 1 mM EDTA (pH 8.0), 1 mM EGTA (pH 8.0), 0.1% SDS, 0.5% sodium deoxycholate, 1% Triton X-100 and protease (Sigma-Aldrich)/phosphatase (Roche, Basel, Switzerland) inhibitor cocktails. After two sonications with an interval of 30 min on ice, cell lysates were collected by centrifugation at 14,000× g for 30 min at 4 °C. Protein concentrations were determined using a Bradford assay (Bio-Rad, Hercules, CA, USA). Protein samples (25 µg) were separated by 10–12% SDS-PAGE and transferred to polyvinylidene difluoride (PVDF) membranes (Sigma-Aldrich). After blocking for 2 h with 10% skimmed milk or 5% BSA in 0.1% Tween 20 in Tris-buffered saline (TBST), the membrane was incubated with primary antibody against BDNF (1:500; Santa Cruz, Santa Cruz, CA, USA), BCL2 (1:500; BioVision), BAX (1:500; BioVision), TRKB (1:1000; Cell Signaling, Danvers, MA, USA), p-TRKB (Y516) (1:1000; Cell Signaling), p-TRKB (Y817) (1:1000; Millipore, Billerica, MA, USA), ERK (1:1000; Cell Signaling), p-ERK (T202/Y204) (1:500; Cell Signaling), AKT (1:1000; Cell Signaling), p-AKT (S473) (1:1000; Cell Signaling), CREB (1:1000; Santa Cruz), p-CREB (S133) (1:1000; Millipore), JNK (1:1000; Cell Signaling), p-JNK (T183/Y185) (1:1000; Cell Signaling) or loading control glyceraldehyde-3-phosphate dehydrogenase (GAPDH) (1:1000; MDBio, Taipei, Taiwan). After three washes with TBST, the immune complexes were detected using horseradish peroxidase-conjugated goat anti-mouse or goat anti-rabbit secondary IgG antibody (1:5000, GeneTex, Irvine, CA, USA) and enhanced chemiluminescence substrates luminol and peroxide (Millipore). The primary and secondary antibodies used were diluted with TBST. The chemiluminescent detection was performed on ImageQuant™ LAS 4000mini (GE Healthcare).

In data set [9] the test system is p-CREB (S133). Briefly: Immunoblot of p-CREB (S133). Format: cell-based, human. Conditions: BDNF 100 ng/mL, LMDS-1/2 10 μM; induced untreated 72%; Figure 6B. The method, then: as §2, §3
On the technique in general: In western blotting, separated proteins are transferred to a membrane and probed.

T2 sequence (P10636 with tags, fused parts or gaps DEL597-597): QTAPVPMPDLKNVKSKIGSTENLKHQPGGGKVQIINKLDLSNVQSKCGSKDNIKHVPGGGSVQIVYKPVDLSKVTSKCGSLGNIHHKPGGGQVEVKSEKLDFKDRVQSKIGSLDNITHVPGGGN
T1 sequence (Q16620 32-429): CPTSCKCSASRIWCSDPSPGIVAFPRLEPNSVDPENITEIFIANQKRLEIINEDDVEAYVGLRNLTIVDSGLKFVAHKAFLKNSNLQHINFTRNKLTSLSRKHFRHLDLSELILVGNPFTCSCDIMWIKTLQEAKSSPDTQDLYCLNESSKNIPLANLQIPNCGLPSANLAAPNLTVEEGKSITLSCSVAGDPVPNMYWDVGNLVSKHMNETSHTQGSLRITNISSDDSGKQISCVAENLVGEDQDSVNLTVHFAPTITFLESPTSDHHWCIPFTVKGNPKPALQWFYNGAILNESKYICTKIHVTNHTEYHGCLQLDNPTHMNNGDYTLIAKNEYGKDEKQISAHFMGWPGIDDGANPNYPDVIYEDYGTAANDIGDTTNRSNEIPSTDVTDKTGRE

Turning to `O=c1cc(-c2ccccc2)oc2c(O)c(O)ccc12` [7,8-DHF, 7,8-dihydroxyflavone, reference compound], the equilibrium dissociation constant (Kd) in data set [1] stood at 0.016 ± 0.0034 µM.

For the molecule `Nc1c(/N=N/c2ccc(-c3ccc(/N=N/c4cc(S(=O)(=O)O)c5ccccc5c4N)cc3)cc2)cc(S(=O)(=O)O)c2ccccc12` [Congo red, reference compound], in [2], the IC50 at 6 days was 45 µM. In data set [3] (induced untreated 0.87, uninduced 0.99), the Neurite branching is 1.00–1.06. Also, in data set [3] (induced untreated 27.2 μm, uninduced 30.9 μm), the Neurite length is reported as 30.3–31.5 μm.

As to `O=c1c(O)c(-c2ccc(O)cc2)oc2cc(O)cc(O)c12` [Kaempferol, kaempferol, reference compound], the response in data set [4] was half-maximal at 28 µM (EC50).

On to `COc1ccc2cc(C(=O)c3ccccc3)c(=O)oc2c1` [LMDS-3], for which the figures for the EC50 in data set [5] and in data set [4] were 21 µM and 132 µM, respectively. Also, in data set [6], the “Oxygen radical absorbance capacity, activity equivalent to Trolox” value is 12 μM Trolox. In addition, in data set [2], the 50% inhibitory concentration (IC50) at 6 days worked out at 29 µM.

Take `CC(=O)Oc1ccc2cc(C(=O)c3ccccc3)c(=O)oc2c1` [LMDS-4]: the concentration for a half-maximal effect (EC50) in [5] is 14 µM; in data set [4], 126 µM. Besides, the “Oxygen radical absorbance capacity, activity equivalent to Trolox” value in [6] came out at 16 μM Trolox. The half-inhibitory concentration (IC50) at 6 days in [2] was determined as 25 µM.

As to BDNF: Brain-derived neurotrophic factor, the DsRed fluorescence intensity in data set [7] is 111–112%. In addition, the “p-TRKB (Y516/Y817) level” value in data set [8] is given as 96–104%. Moreover, in data set [9], the p-CREB level is listed as 90–95%.

The Kd is the concentration at which binding is half-saturated. The IC50 is the point on the concentration scale where inhibition reaches its midpoint. Usually EC50 stands for the concentration that produces a half-maximal response.
